The text below walks through data of paper PMC12686490 (Nature Communications, 2025).

The test system of test [1] is CCKBR-LTP in the auditory cortex. The experiment in a line: MEA recording, TBS-induced CCKBR-LTP in auditory cortex slices of C57 mice. Particulars: for Effect on TBS-induced CCKBR-LTP: one-hour preincubation: 100 nM YF476, 10 μM U-73122, 50 μM 2-APB, 20 μM YM254890, 100 μM barbadin, 10 μM H-89, 300 ng PTX injected into AC 24-48 h before. Also on record: species or system mouse.

Test [2] has the same test system. The experiment in a line: MEA recording, drug plus LFS-induced LTP in auditory cortex slices. Conditions: 200 nM, 10 min, AC slices of C57 mice. Also on record: species or system mouse.
The target in the next test is GPR173 / β-arrestin1 (Homo sapiens, UniProt Q9NS66). The experiment in a line: BRET-based β-arrestin1 assay, 293T-GPR173 cells. Particulars: up to 10 μM. It is filed as cell-based.
GPR173 / β-arrestin1, sequence (Q9NS66 whole entry): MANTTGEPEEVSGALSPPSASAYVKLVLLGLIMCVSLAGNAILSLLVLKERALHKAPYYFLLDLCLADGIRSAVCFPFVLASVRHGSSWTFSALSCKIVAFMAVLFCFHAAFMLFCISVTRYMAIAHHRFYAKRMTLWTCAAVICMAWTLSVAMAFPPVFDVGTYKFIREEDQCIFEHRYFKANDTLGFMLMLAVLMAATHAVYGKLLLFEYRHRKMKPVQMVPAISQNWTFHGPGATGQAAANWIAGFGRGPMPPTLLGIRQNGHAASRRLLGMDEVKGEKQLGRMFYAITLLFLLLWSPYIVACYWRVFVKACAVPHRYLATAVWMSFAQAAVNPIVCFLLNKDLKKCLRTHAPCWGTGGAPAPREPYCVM
For the next test, the target named is GPR173 / β-arrestin2 (Homo sapiens, UniProt Q9NS66). The experiment in a line: BRET-based β-arrestin2 assay, 293T-GPR173 cells. It is filed as cell-based. Particulars: up to 10 μM. For orientation: In BRET a luciferase serves as donor, and the signal depends on an acceptor being close.
GPR173 / β-arrestin2, sequence (Q9NS66 whole entry): as above
Test [3] deals with T1, CCKBR (Homo sapiens, UniProt P32239).
T1 sequence (P32239 1-447): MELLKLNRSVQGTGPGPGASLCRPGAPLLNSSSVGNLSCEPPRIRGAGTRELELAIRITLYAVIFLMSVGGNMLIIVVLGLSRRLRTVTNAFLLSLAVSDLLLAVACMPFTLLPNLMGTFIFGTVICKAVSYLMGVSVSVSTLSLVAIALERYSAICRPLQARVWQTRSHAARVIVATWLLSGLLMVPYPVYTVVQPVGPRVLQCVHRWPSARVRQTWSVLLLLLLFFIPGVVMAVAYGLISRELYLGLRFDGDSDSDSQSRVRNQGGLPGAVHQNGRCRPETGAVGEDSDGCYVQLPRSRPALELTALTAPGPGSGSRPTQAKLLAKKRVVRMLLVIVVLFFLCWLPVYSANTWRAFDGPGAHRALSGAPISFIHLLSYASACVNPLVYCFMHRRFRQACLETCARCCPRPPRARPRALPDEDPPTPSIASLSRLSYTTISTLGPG
In words: Calcium mobilization assay. It is filed as cell-based. Conditions: screening.

Test [4] concerns the target T1, CCKBR. In words: PRESTO-Tango assay. It is filed as cell-based. Conditions: screening.

Structures are written as SMILES. Numbered stars: 1 amine (or outer) side, 2 acyl side, 3 side chain; on linkers, the order of the positions; unused ones are H or OH. Bridge positions count the residues as written; N and C are the ends. Square brackets hold non-standard residues; d marks the D form. Peptide text beside a SMILES is read from it. X1 = O=C(C1(O)C[C@H](O)[C@@H](N[*:1])[C@H]([C@H](O)[C@H](O)CO)O1)[*:2]; X2 = CC(=O)NC(C(=O)OC(C(C)C)C(N[*:1])C(=O)[*:2])C(O)C(C)C; NMeW = CN[C@@H](Cc1c[nH]c2ccccc12)C(=O)O; Phe(3-Br) = N[C@@H](Cc1cccc(Br)c1)C(=O)O; PhLac = O=C(O)[CH](O)Cc1ccccc1; NMeT = CN[CH](C(=O)O)[CH](C)O; Nle = CCCC[C@H](N)C(=O)O; NMeA = CN[CH](C)C(=O)O; NMeDha = C=C(NC)C(=O)O

Turning to `NCCOB(c1ccccc1)c1ccccc1` [2-APB], the “Effect on TBS-induced CCKBR-LTP” value in test [1] was “significantly and almost completely inhibited”.
For the compound `CSCC[C@H](NC(=O)[C@H](Cc1ccc(OS(=O)(=O)O)cc1)NC(=O)[C@@H](N)CC(=O)O)C(=O)NCC(=O)N[C@@H](Cc1c[nH]c2ccccc12)C(=O)N[C@@H](CCSC)C(=O)N[C@@H](CC(=O)O)C(=O)N[C@@H](Cc1ccccc1)C(N)=O` [CCK8s], the “LTP induction by drug with LFS (fEPSP amplitude)” value in test [2] is on record as “induced LTP”. For the same compound, the “Activation of β-arrestin1 downstream of GPR173” value at GPR173 / β-arrestin1 is “could activate”. The “Activation of β-arrestin2 downstream of GPR173” value on GPR173 / β-arrestin2 is recorded as “could activate”.
Turning to `O=S(=O)(NCCNC/C=C/c1ccc(Br)cc1)c1cccc2cnccc12` [H-89], the “Effect on TBS-induced CCKBR-LTP” value in test [1] is on record as “partially inhibited”.
For `CCCC[C@H](NC(=O)[C@H](Cc1c[nH]c2ccccc12)N(C)C(=O)C1(O)C[C@H](O)[C@@H](NC(C)=O)[C@H]([C@H](O)[C@H](O)CO)O1)C(=O)N[C@@H](CC(=O)O)C(=O)N[C@@H](Cc1cccc(Br)c1)C(N)=O` (stereo partly drawn) [MF-7] (Ac-[X1][NMeW][Nle]D[Phe(3-Br)]-NH2), at CCKBR [3], the “Activation of Gαq/11-Ca2+ signaling” value is recorded as “performed poorly”. Besides, the “Induction of β-arrestin2 signaling” value at CCKBR [4] is listed as “highly potent”.
As for `COc1ccc2c(c1)CC[C@@H]1[C@@H]2CC[C@]2(C)[C@@H](NCCCCCCN3C(=O)C=CC3=O)CC[C@@H]12` [U-73122], the “Effect on TBS-induced CCKBR-LTP” value in test [1] is “significantly and almost completely inhibited”.
The same measure, in the same setting: the entry for `CNc1cccc(NC(=O)N[C@@H]2N=C(c3ccccn3)c3ccccc3N(CC(=O)C(C)(C)C)C2=O)c1` [YF476] is “confirmed that the LTP was CCKBR-dependent”.
With `C=C1C(=O)NC(C)C(=O)N(C)C(C)C(=O)NC(C(OC(=O)C(NC(C)=O)C(O)C(C)C)C(C)C)C(=O)N(C)C(C(C)OC)C(=O)OC(C)C(NC(C)=O)C(=O)OC(Cc2ccccc2)C(=O)N1C` (stereo not drawn) [YM254890] (Ac-T[PhLac][NMeDha]A[NMeA][X2][NMeT](Me); ester 1-C; configuration not given here), the “Effect on TBS-induced CCKBR-LTP” value in test [1] is “significantly and almost completely inhibited”.
Take `Nn1cnc2scc(-c3ccc(Cc4ccccc4)cc3)c2c1=O` [barbadin]: in test [1] (2-h preincubation of barbadin + 200 nM MF-8), the “Effect on the inhibition of TBS-induced LTP by MF-8” value is on record as “could indeed eliminate the inhibitory effect of MF-8”. Further, in test [1], the “Effect on TBS-induced CCKBR-LTP” value is “could not inhibit”.
